Data set [1] deals with TNF-alpha synthesis and release from the human macrophage cell line U937. Nature of the data set: Inhibition of TNF-alpha synthesis and release from the human macrophage cell line U937. Type of data set: cell-based. The source says: Accordingly, the invention also provides a compound of formula I for use as a pharmaceutical. […] Methods (1997) 202:49-57; Renzi et al, Am. Rev. Respir. Dis. (1993) 148:932-939; Tsuyuki et al., J. Clin. Invest. (1995) 96:2924-2931; and Cemadas et al (1999) Am. J. Respir. Cell Mol. Biol. 20:1-8.

In data set [2] the test system is lung eosinophilia. The experiment in a line: Inhibition of lung eosinophilia in ovalbumin-sensitised Brown Norway rats. Type of data set: in vivo. Particulars: 3 mg/kg intratracheally as dry powder lactose blend, 24 h before ovalbumin aerosol; lung lavage 24 h after challenge. The protocol:
In vivo anti-inflammatory activity may be assessed by inhibition of lung eosinophilia in rats using a modification of the method of Szarka et al op cit. Male Brown Norway rats (approximately 200 g) are sensitised on day 1 with an intraperitonial injection of 0.5 ml of a mixture of ovalbumin (0.02 mg/ml) and aluminium hydroxide (20 mg/ml), followed by Acellulare pertussis adsorbat vaccine (0.2 ml of a 1:4 dilution with 0.9% saline). The procedure is repeated on day 15 and day 21. […] The lungs are removed and after lavage with Hank's solution (balanced salt solution, 100 ml; EDTA 100 mM, 100 ml; HPES 1M, 10 ml, water 1000 ml), eosinophil numbers in the recovered solution are quantified directly using a Corbas Helios 5Diff apparatus (Hoffman-LaRoche).

A short description of data set [3]: Systemic side effects: reduction in thymus weight on chronic administration to rats. Type of data set: in vivo, Sprague-Dawley rats. The protocol: Systemic side effects may be assessed by reduction in thymus weight on chronic administration to rats. Male Sprague-Dawley rats (approximately 250 g) are treated once daily for 4 days with the test compound administered at a dose of 1 mg/kg either orally as a hydroxypropyl cellulose suspension or intratracheally under isoflurane anaesthesia as a dry powder lactose blend. On day 5 the rats are sacrificed, autopsy is performed and the weight of the thymus is determined.

Setting [4] is: Homo sapiens, U-937, read-out: IC50 inhibition of TNF-alpha synthesis and release.

Molecules are shown by their SMILES. Like-named read-outs stand apart in the source and are kept apart here.

Take `COC(=O)[C@@]1(OC(=O)C2CC2)[C@@H](C)CC2C3C[C@H](F)C4=CC(=O)C=C[C@]4(C)[C@@]3(Cl)[C@@H](O)C[C@@]21C` (stereo partly drawn) [Example 34, (6S,9R,10S,11S,13S,16S,17R)-9-chloro-17-cyclopropanecarbonyloxy-6-fluoro-11-hydroxy-10,13,16-trimethyl-3-oxo-6,7,8,9,10,11,12,13,14,15,16,17-dodecahydro-3H-cyclopenta[a]phenanthrene-17-carboxylic acid methyl ester]: the concentration for half-maximal inhibition (IC50) (in general, the midpoint of a concentration-inhibition curve) in data set [1] (setting [4]) turned out to be 0.1 nM. In data set [2], the “reduction in eosinophil count compared to vehicle control” value (“reduction in eosinophil count” below) was 90%.
Take `COC(=O)[C@@]1(OC(=O)c2cnc(C)cn2)[C@H](C)CC2C3C[C@H](F)C4=CC(=O)C=C[C@]4(C)[C@@]3(Cl)[C@@H](O)C[C@@]21C` (some centres unmarked) [Example 99]: the “reduction in thymus weight compared to vehicle control when dosed intratracheally” value in data set [3] (1 mg/kg intratracheally once daily for 4 days, dry powder lactose blend) was determined as 70%. The “reduction in thymus weight compared to vehicle control when dosed orally” value in data set [3] (1 mg/kg orally once daily for 4 days, hydroxypropyl cellulose suspension) is given as 0%. Also, in data set [1] (U937 human macrophage cell line, read-out: IC50 inhibition of TNF-alpha synthesis and release), the concentration for half-maximal inhibition (IC50) was 0.106 nM. The “reduction in eosinophil count” value in data set [2] was determined as 48%.
As to `COC(=O)[C@@]1(OC(=O)c2sccc2C)[C@H](C)CC2C3C[C@H](F)C4=CC(=O)C=C[C@]4(C)[C@@]3(Cl)[C@@H](O)C[C@@]21C` (stereo partly drawn) [Example 26, 3-methylthiophene-2-carboxylic acid (6S,9R,10S,11S,13S,16R,17R)-9-chloro-6-fluoro-11-hydroxy-17-methoxycarbonyl-10,13,16-trimethyl-3-oxo-6,7,8,9,10,11,12,13,14,15,16,17-dodecahydro-3H-cyclopenta[a]phenanthren-17-yl ester], the IC50 in data set [1] (setting [4]) came to 0.024 nM. Further, in data set [2], the “reduction in eosinophil count” value amounted to 63%.

These data come from patent publication US6921757B2, “Organic compounds” (Novartis AG, priority 2000, dated 2005).
